These results are taken from patent US11713335B2, “Aminocoumarin compounds and methods of their use” (President and Fellows of Harvard College, priority 2018, dated 2023).

For assay [1], the system named is WT E. coli. Put plainly: Minimal inhibitory concentration in wild-type E. coli. It is filed as cell-based, Escherichia coli. Particulars: wild-type E. coli, 37° C., 16 hours, read-out: MIC (μM) in WT E. coli. The protocol: General Procedure for Determination of Minimal Inhibitory Concentrations
Overnight cultures (5 mL) of bacterial strains were grown in LB media or TSA media (for S. aureus) at 37° C. and with shaking at 220 rpm until saturation. The overnight culture was diluted serially 1:100 (50 μL in 5 mL sterile media) and then 1:100 (250 μL in 25 mL sterile media). The 25 mL of diluted culture was then dispensed to a sterile 96 well plate (Corning #3370). 198 μL of culture were dispensed into row A and 100 μL of this culture were dispensed into rows B-H. Aminocoumarin compound (DMSO stock) were added to the first row and then the row was mixed by pipetting. 100 μL of culture from row A were transferred to row B and the serial dilution continued until the final 100 μL from row H were discarded. The plate was incubated without shaking in a 37° C. for 16 hours and then read by visible light spectrophotometer (Molecular Devices) at 600 nm. The minimal inhibitory concentration (MIC) was determined as the lowest concentration of compound concentration that inhibited the growth of bacteria.

For assay [2], the system named is K. pneumoniae 700721. Put plainly: Minimal inhibitory concentration, K. pneumoniae 700721. It is filed as cell-based. Particulars: 16 hour minimal inhibitory concentration at 37° C., read-out: MIC (μM) K. pneumoniae 700721. An outline of the steps: (§1)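 Growth at 600 nm after 16 h at 37 °C without shaking defines the MIC, taken as the lowest compound concentration that prevents growth and expressed in µM. Cultures grown to saturation in LB, or TSA for S. aureus, were diluted 1:100 twice before twofold serial compound dilution.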

For assay [3], the system named is A. baumannii 19606. Put plainly: Minimal inhibitory concentration, A. baumannii 19606. The conditions noted are these: 16 hour minimal inhibitory concentration at 37° C., read-out: MIC (μM) A. baumannii 19606. It is filed as cell-based. An outline of the steps: as §1
Assay [4] has as its system E. cloacae 13047. Put plainly: Minimal inhibitory concentration, E. cloacae 13047. Particulars: 16 hour minimal inhibitory concentration at 37° C., read-out: MIC (μM) E. cloacae 13047. It is filed as cell-based. An outline of the steps: as §1
In assay [5] the test system is E. coli 25922. Put plainly: Minimal inhibitory concentration, E. coli 25922. It is filed as cell-based. Particulars: 16 hour minimal inhibitory concentration at 37° C., read-out: MIC (μM) E. coli 25922. An outline of the steps:
as §1

Assay [6] deals with S. aureus RN4220. Put plainly: Minimal inhibitory concentration, S. aureus RN4220. The format is cell-based. Particulars: 16 hour minimal inhibitory concentration at 37° C., read-out: MIC (μM) S. aureus RN4220. A digest of the protocol: as §1
In assay [7] the test system is S. aureus MW2. Put plainly: Minimal inhibitory concentration, S. aureus MW2. It is filed as cell-based. The conditions noted are these: 16 hour minimal inhibitory concentration at 37° C., read-out: MIC (μM) S. aureus MW2 (MRSA). An outline of the steps: as §1
Assay [8] concerns E. coli MC4100. Put plainly: Minimal inhibitory concentration, E. coli MC4100. It is filed as cell-based. The conditions noted are these: 16 hour minimal inhibitory concentration at 37° C., read-out: MIC (μM) E. coli MC4100 ara+. An outline of the steps:
as §1

Where [9] appears, read: Acinetobacter baumannii, 19606, 16 h.
The mark [10] stands for this setting: Staphylococcus aureus, RN4220, 16 h.
Where [11] appears, read: Staphylococcus aureus, MRSA, 16 h.

In brackets after ≈: the same amount, converted by molar mass. Like-named read-outs stand apart in the source and are kept apart here.

On to `CO[C@@H]1[C@@H](OC(N)=O)[C@@H](O)[C@H](Oc2ccc3c(O)c(NC(=O)c4cccc(-c5ccc(I)cc5)c4)c(=O)oc3c2C)OC1(C)C` [Compound 34], for which the MIC in assay [1] (Escherichia coli) is 59 µM (≈ 43.1 µg/mL); in assay [2] (Klebsiella pneumoniae, 700721), over 100 µM; in assay [3] (setting [9]), 9 µM (≈ 6.57 µg/mL); in assay [4] (Enterobacter cloacae, 13047) it was over 100 µM; in assay [5] (Escherichia coli, 25922, 16 h) it was 68 µM (≈ 49.7 µg/mL); in assay [6] (setting [10]) it was 0.43 µM (≈ 0.314 µg/mL). The MIC in assay [7] (setting [11]) amounted to 0.43 µM (≈ 0.314 µg/mL); in assay [8] (Escherichia coli, MC4100, 16 h), 59 µM (≈ 43.1 µg/mL).
Take `CO[C@@H]1[C@@H](OC(N)=O)[C@@H](O)[C@H](Oc2ccc3c(O)c(NC(=O)c4ccc(O)c(C/C=C/C(=O)O)c4)c(=O)oc3c2C)OC1(C)C` [Compound 82]: the minimal inhibitory concentration (MIC) in assay [1] is listed as over 300 µM; in assay [2], over 100 µM; in assay [3], over 50 µM; in assay [4], over 100 µM; in assay [5], over 200 µM; in assay [6], over 100 µM. Further, the minimal inhibitory concentration (MIC) in assay [7] is reported as over 100 µM; in assay [8], over 200 µM.
Regarding `CO[C@@H]1[C@@H](OC(N)=O)[C@@H](O)[C@H](Oc2ccc3c(O)c(NC(=O)c4ccc(O)c(CC(N)=O)c4)c(=O)oc3c2C)OC1(C)C` [Compound 90], the minimum inhibitory concentration (MIC) in assay [1] was over 300 µM; in assay [2], over 100 µM; in assay [3], over 50 µM; in assay [4], over 100 µM; in assay [5], over 200 µM; in assay [6], over 100 µM. For the same compound, the figures for the MIC in assay [7] and in assay [8] were over 100 µM and over 200 µM, respectively.
As to `CO[C@@H]1[C@@H](OC(N)=O)[C@@H](O)[C@H](Oc2ccc3c(O)c(NC(=O)c4cccc5ccn(C)c45)c(=O)oc3c2C)OC1(C)C` [Compound 74], the minimum inhibitory concentration (MIC) is given as over 300 µM in assay [1]; over 100 µM in assay [2]; over 50 µM in assay [3]; over 100 µM in assay [4]; over 200 µM in assay [5]; over 100 µM in assay [6]. Moreover, the results for the minimal inhibitory concentration (MIC) in assay [7] and in assay [8] were over 100 µM and over 200 µM, respectively.
As to `CO[C@@H]1[C@@H](OC(N)=O)[C@@H](O)[C@H](Oc2ccc3c(O)c(NC(=O)c4ccc(N)c(-c5ccccc5)c4)c(=O)oc3c2C)OC1(C)C` [Compound 86], the MIC in assay [1] is recorded as 18 µM (≈ 11.2 µg/mL); in assay [2], 40 µM (≈ 24.8 µg/mL); in assay [3], over 50 µM; in assay [4], over 100 µM; in assay [5], 20 µM (≈ 12.4 µg/mL); in assay [6], 20 µM (≈ 12.4 µg/mL). Besides, the minimal inhibitory concentration (MIC) in assay [7] is recorded as 20 µM (≈ 12.4 µg/mL); in assay [8], 18 µM (≈ 11.2 µg/mL).
`CO[C@@H]1[C@@H](OC(N)=O)[C@@H](O)[C@H](Oc2ccc3c(O)c(NC(=O)c4c[nH]c5ccccc45)c(=O)oc3c2C)OC1(C)C` [Compound 17]: the MIC is over 300 µM in assay [1] (Escherichia coli); over 100 µM in assay [2] (Klebsiella pneumoniae, 700721); over 50 µM in assay [3] (setting [9]); over 100 µM in assay [4] (Enterobacter cloacae, 13047); over 200 µM in assay [5] (Escherichia coli, 25922, 16 h); 44 µM (≈ 25 µg/mL) in assay [6] (setting [10]). Moreover, the MIC in assay [7] (setting [11]) was 22 µM (≈ 12.5 µg/mL); in assay [8] (Escherichia coli, MC4100, 16 h), over 200 µM.
For the compound `CO[C@@H]1[C@@H](OC(N)=O)[C@@H](O)[C@H](Oc2ccc3c(O)c(NC(=O)c4cccc(-c5ccccc5F)c4)c(=O)oc3c2C)OC1(C)C` [Compound 37], the MIC was 59 µM (≈ 36.7 µg/mL) in assay [1] (Escherichia coli); over 100 µM in assay [2] (Klebsiella pneumoniae, 700721); over 50 µM in assay [3] (setting [9]); over 100 µM in assay [4] (Enterobacter cloacae, 13047); 80 µM (≈ 49.8 µg/mL) in assay [5] (Escherichia coli, 25922, 16 h); 10 µM (≈ 6.23 µg/mL) in assay [6] (setting [10]). The minimum inhibitory concentration (MIC) in assay [7] (setting [11]) was 10 µM (≈ 6.23 µg/mL); in assay [8] (Escherichia coli, MC4100, 16 h), 59 µM (≈ 36.7 µg/mL).
On to `CO[C@@H]1[C@@H](OC(N)=O)[C@@H](O)[C@H](Oc2ccc3c(O)c(NC(=O)c4ccc(-c5ccccc5)cc4)c(=O)oc3c2C)OC1(C)C` [Compound 2], for which the MIC was over 300 µM in assay [1] (Escherichia coli); over 100 µM in assay [2] (Klebsiella pneumoniae, 700721); over 50 µM in assay [3] (setting [9]); over 100 µM in assay [4] (Enterobacter cloacae, 13047); over 200 µM in assay [5] (Escherichia coli, 25922, 16 h); 21 µM (≈ 12.7 µg/mL) in assay [6] (setting [10]). The MIC in assay [7] (setting [11]) is 21 µM (≈ 12.7 µg/mL); in assay [8] (Escherichia coli, MC4100, 16 h), over 200 µM.
Consider `CO[C@@H]1[C@@H](OC(N)=O)[C@@H](O)[C@H](Oc2ccc3c(O)c(NC(=O)c4cccc(-c5ccccc5)c4O)c(=O)oc3c2C)OC1(C)C` [Compound 88], for which the minimal inhibitory concentration (MIC) is 89 µM (≈ 55.2 µg/mL) in assay [1]; over 100 µM in assay [2]; over 50 µM in assay [3]; over 100 µM in assay [4]; 161 µM (≈ 99.9 µg/mL) in assay [5]; over 100 µM in assay [6]. Moreover, the MIC turned out to be 81 µM (≈ 50.3 µg/mL) in assay [7] and 89 µM (≈ 55.2 µg/mL) in assay [8].
Regarding `CO[C@@H]1[C@@H](OC(N)=O)[C@@H](O)[C@H](Oc2ccc3c(O)c(NC(=O)c4cc(O)cc(-c5ccccc5)c4)c(=O)oc3c2C)OC1(C)C` [Compound 78], the minimum inhibitory concentration (MIC) in assay [1] is 59 µM (≈ 36.6 µg/mL); in assay [2] it was over 100 µM; in assay [3], 40 µM (≈ 24.8 µg/mL); in assay [4], over 100 µM; in assay [5] it was 40 µM (≈ 24.8 µg/mL); in assay [6], 5 µM (≈ 3.1 µg/mL). The minimal inhibitory concentration (MIC) in assay [7] is 4 µM (≈ 2.48 µg/mL); in assay [8], 59 µM (≈ 36.6 µg/mL).
On to `CO[C@@H]1[C@@H](OC(N)=O)[C@@H](O)[C@H](Oc2ccc3c(O)c(NC(=O)c4cc(-c5ccc(F)cc5)cc(O)c4O)c(=O)oc3c2C)OC1(C)C` [Compound 97], for which the minimum inhibitory concentration (MIC) was over 300 µM in assay [1]; over 100 µM in assay [2]; over 50 µM in assay [3]; over 100 µM in assay [4]; 153 µM (≈ 100 µg/mL) in assay [5]; 76 µM (≈ 49.7 µg/mL) in assay [6]. Further, the MIC in assay [7] is 38 µM (≈ 24.9 µg/mL); in assay [8], over 200 µM.
Consider `CO[C@@H]1[C@@H](OC(N)=O)[C@@H](O)[C@H](Oc2ccc3c(O)c(NC(=O)c4cccc(N5CCOCC5)c4)c(=O)oc3c2C)OC1(C)C` [Compound 23], for which the MIC in assay [1] (Escherichia coli) is over 300 µM; in assay [2] (Klebsiella pneumoniae, 700721) it was over 100 µM; in assay [3] (setting [9]), over 50 µM; in assay [4] (Enterobacter cloacae, 13047), over 100 µM; in assay [5] (Escherichia coli, 25922, 16 h), over 200 µM; in assay [6] (setting [10]) it was 82 µM (≈ 50.3 µg/mL). The MIC in assay [7] (setting [11]) is 82 µM (≈ 50.3 µg/mL); in assay [8] (Escherichia coli, MC4100, 16 h), over 200 µM.
For the compound `CO[C@@H]1[C@@H](OC(N)=O)[C@@H](O)[C@H](Oc2ccc3c(O)c(NC(=O)c4cccc(-c5cccc(O)c5O)c4)c(=O)oc3c2C)OC1(C)C` [Compound 99], the MIC was over 300 µM in assay [1]; over 100 µM in assay [2]; over 50 µM in assay [3]; over 100 µM in assay [4]; over 200 µM in assay [5]; 79 µM (≈ 50.3 µg/mL) in assay [6]. The minimal inhibitory concentration (MIC) was 79 µM (≈ 50.3 µg/mL) in assay [7] and over 200 µM in assay [8].
For the compound `CO[C@@H]1[C@@H](OC(N)=O)[C@@H](O)[C@H](Oc2ccc3c(O)c(NC(=O)c4cccc(-c5ccc6ccccc6c5)c4)c(=O)oc3c2C)OC1(C)C` [Compound 39], the minimum inhibitory concentration (MIC) in assay [1] is listed as over 300 µM; in assay [2] it was over 100 µM; in assay [3], 5 µM (≈ 3.27 µg/mL); in assay [4] it was over 100 µM; in assay [5] it was 153 µM (≈ 100 µg/mL); in assay [6], 0.19 µM (≈ 0.124 µg/mL). Besides, the results for the minimal inhibitory concentration (MIC) in assay [7] and in assay [8] were 0.1 µM (≈ 0.0655 µg/mL) and over 200 µM, respectively.

What is called MIC is the least concentration at which growth counts as inhibited.
